Measurements reported in patent publication US5004758A, “Water soluble camptothecin analogs useful for inhibiting the growth of animal tumor cells” (priority 1988, dated 1991).
Where a name gives a salt, the structure may show the parent alone. Read-outs that look alike come from different tables or passages of the source.

Assays:
sc M5076 sarcoma = experiment: sc-implanted M5076 sarcoma in mice; assay type: in vivo, mouse; conditions: for Mice without Palpable Tumors: B/ip
Source text: (§1) The inoculum varies with the tumor.

sc colon carcinoma 26 = experiment: sc-implanted colon carcinoma 26 in mice; assay type: in vivo, mouse; conditions: for Tumor growth inhibition (TGI): sc Colon 26, B/ip (Days 1, 5, 9 and 13)
Source text: as §1

HT-29 = experiment: Cytotoxicity to tumor cells in culture; assay type: cell-based; conditions: Homo sapiens
Experimental: (§2) The cell lines are used and maintained as monolayer cultures in Minimal Essential Media (Grand Island Biological Co., Grand Island, N.Y.) supplemented with 10% fetal calf serum in a 5% CO2 humidified incubator at 37° C. Various concentrations of a Formula (I) compound under sterile conditions were allowed to react for 2 hours followed by aspiration of medium or were exposed continuously. Plates are incubated for 7 days at 37° C. in a CO2 incubator. Medium was aspirated and cells were fixed and stained with ethanol and Geisma stain. The surviving cell population was determined by scanning the plates with an image analyzer. The percent inhibition of proliferation was determined relative to cells incubated in the absence of drug and the 50 percent inhibitory concentration (IC50) was determined by interpolation.

CACO-2 = experiment: Cytotoxicity to tumor cells in culture; assay type: cell-based; conditions: Homo sapiens
Experimental: as §2

B16 Melanoma = experiment: Cytotoxicity to tumor cells in culture; assay type: cell-based; conditions: Mus musculus, continuous exposure
Experimental: as §2

SW-620 = experiment: Cytotoxicity to tumor cells in culture; assay type: cell-based; conditions: Homo sapiens
Experimental: as §2

WIDR = experiment: Cytotoxicity to tumor cells in culture; assay type: cell-based; conditions: Homo sapiens
Experimental: as §2

L1210 Leukemia = experiment: Cytotoxicity to tumor cells in culture; assay type: cell-based; conditions: Mus musculus, 2 hr exposure
Experimental: as §2

SKCO-1 = experiment: Cytotoxicity to tumor cells in culture; assay type: cell-based; conditions: Homo sapiens
Experimental: as §2

SW-948 = experiment: Cytotoxicity to tumor cells in culture; assay type: cell-based; conditions: Homo sapiens
Experimental: as §2

DLD-1 = experiment: Cytotoxicity to tumor cells in culture; assay type: cell-based; conditions: Homo sapiens
Experimental: as §2

LOVO = experiment: Cytotoxicity to tumor cells in culture; assay type: cell-based; conditions: Homo sapiens
Experimental: as §2

K12/Tr Colon Carcinoma = experiment: Cytotoxicity to tumor cells in culture; assay type: cell-based; conditions: K12/Tr rat colon carcinoma
Experimental: as §2

in vivo [1] = conditions: mouse, ip
Experimental: For in vivo studies L1210 cells were implanted i.p. (10^6 per mouse)
and drugs were administered i.p. on Days 1 and 5. Increase in lifespan
(ILS) was based on median survival time of groups of 6 mice treated at th
maximally tolerated dose of the drugs.

in vivo [2] = experiment: in vivo; design: species or system mouse; conditions: mouse, in vivo, ip
Source text: as §1

[3] = system: sc mammary adenocarcinoma 16/c; experiment: in vivo; design: species or system mouse; conditions: mouse, in vivo
Source text: as §1

[4] = system: NRK52E (rat kidney epithelium); experiment: Cytotoxicity to normal rodent cells in culture; assay type: cell-based; conditions: NRK-52E
Experimental: as §2

[5] = system: IEC-6 (rat intestinal epithelium); experiment: Cytotoxicity to normal rodent cells in culture; assay type: cell-based
Experimental: as §2

Aqueous solubility = assay type: physicochemical
iv L1210 leukemia = conditions: mouse, in vivo
Source text: Animals were inoculated iv with 10^6 cells. Increase in lifespan (ILS) is based on median survival time of groups of 6 mice relative to untreated controls.
The protocols utilized for the evaluation of the antitumor activity of Formula (I) compounds are well established and widely utilized by those skilled in the art of assessing the activity of drugs in preclinical tumor models. These studies generally follow the protocols established by the National Cancer Institute as described by Geran et al., Cancer Chemotherapy Reports, Part 3, Vol. 3, 1-103, 1972.
(§3) Tumors used in these studies P388 leukemia, L1210 leukemia and Lewis lung carcinoma--are maintained by serial transplantation in syngeneic strains of mice, DBA/2 for the leukemias and C57B1/6 for Lewis lung carcinoma. The leukemias are serially transplanted i.p. as ascites cell suspensions while the Lewis lung carcinoma is serially transplanted as a s.c. solid tumor.
(§4) For therapeutic trials, tumors were aseptically removed from donor mice and prepared as suspensions for implantation into test animals which for each tumor are syngeneic female F1 hybrid B6D2F1 mice (C57B1/6×DBA/2). The inoculum level varies with the type of tumor: P388 leukemia is inoculated at 10^6 cells per mouse, L1210 leukemia at 10^5 or 10^6 cells per mouse, and Lewis lung carcinoma at 0.25 ml of a 10 percent (w:v) brei. […] After tumor inoculation, mice are randomized to treatment groups of 6 to 8 mice each. In each experiment, there are three groups of untreated control mice.
(§5) Drugs are dissolved or suspended in appropriate aqueous vehicles and given i.p. or i.v. on various treatment schedules over a range of dosage levels. Animals are housed in shoebox cages and monitored daily for mortality for 30 (L1210), 45 (P388) or 60 (Lewis lung) days.

iv Lewis lung carcinoma = experiment: iv-implanted Lewis lung carcinoma in mice; assay type: in vivo, mouse; conditions: for Increase in lifespan (ILS) / Long-Term Survivors: iv Lewis lung; for Increase in lifespan (ILS): B/ip (Days 1, 5, 9 and 13); for Long-Term Survivors: B/ip
Source text: as §3, §4, §5

P388/Doxorubicin = experiment: ip P388/Doxorubicin multidrug resistant subline in mice; conditions: for ILS / NCK (net tumor cell kill): P388/Doxorubicin, ip, Days 1 and 5
Experimental: Increase in lifespan (ILS) is based on median survival time of groups of 6 mice. Net tumor cell kill (NCK) is calculated from median survival time by standard methods, since survival time is a linear function of the log tumor cell burden.
For the leukemias, these tumors are maintained in DBA/2 mice. […] The leukemias and the M5076 sarcoma are serially transplanted i.p. as ascites cell suspensions while the B16 melanoma lines and the colon carcinoma 26 are serially transplanted as s.c. solid tumors.
For therapeutic trials, tumors are aseptically removed from donor mice and prepared as suspensions for implantation ip into test animals. […] The test animals for the other tumor models are syngeneic female F1 hybrid B6D2F1 mice (C57B1/6 x DBA/2). The inoculum level varies with the type of tumor: P388 leukemia is inoculated at 10^6 cells per mouse, L1210 leukemia at 10^5 or 10^6 cells per mouse, M5076 sarcoma at 5×10^6 cells per mouse. […] After tumor inoculation, mice randomized to treatment groups comprised of 6-8 mice each. In each experiment, there are three groups of untreated control mice. Drugs are dissolved or suspended in appropriate aqueous vehicles and given by a variety of routes and schedules of administration over a range of dose levels. Animals are housed in shoebox cages and are monitored daily for mortality for 30 (L1210), 45 (P388) or 60 (B16, M5076, colon 26) days.

[6] = 2 hr exposure, 7-day incubation, read-out: IC50 2 Hr. Exposure
[7] = 168 h, continuous 7-day exposure, read-out: IC50 Continuous Exposure
[8] = 2 hr exposure, read-out: IC50 2 Hr. Exposure
[9] = continuous exposure, read-out: IC50 Continuous Exposure

Structure (SMILES): CC[C@@]1(O)C(=O)OCc2c1cc1n(c2=O)Cc2cc3c(CN(C)C)c(O)ccc3nc2-1 [Compound No. 1S, (20 S) 9-Dimethylaminomethyl-10-hydroxycamptothecin Acetate Salt]
- TGI at three dose levels at or below a maximally tolerated dose (sc M5076 sarcoma; mouse, in vivo): > 90
- Tumor growth inhibition (TGI) (sc M5076 sarcoma; mouse, in vivo, 3.2 mg/kg): 64%
- Tumor growth inhibition (TGI) (sc M5076 sarcoma; mouse, in vivo, 5.4 mg/kg): 92%
- Tumor growth inhibition (TGI) (sc M5076 sarcoma; mouse, in vivo, 9 mg/kg): 98%
- Tumor growth inhibition (TGI) (sc M5076 sarcoma; mouse, in vivo, 15 mg/kg): 100%
- Tumor growth inhibition (TGI) (sc M5076 sarcoma; mouse, in vivo, 25 mg/kg): toxic
- Increase in Lifespan (ILS) or Inhibition of Tumor Growth (TGI) (sc M5076 sarcoma; mouse, in vivo, sc): 100 % TGI
- Mice without Palpable Tumors (sc M5076 sarcoma; sc M5076, 3.2 mg/kg/injection): 2/8
- Mice without Palpable Tumors (sc M5076 sarcoma; sc M5076, 5.4 mg/kg/injection): 3/8
- Mice without Palpable Tumors (sc M5076 sarcoma; sc M5076, 9 mg/kg/injection): 6/8
- Mice without Palpable Tumors (sc M5076 sarcoma; sc M5076, 15 mg/kg/injection): 8/8
- prolonged lifespan (sc M5076 sarcoma; sc M5076, ip Days 1, 5, 9 and 13): 31%
- inhibition of tumor growth at the maximally tolerated dose (sc colon carcinoma 26; mouse, in vivo, sc): > 70
- Tumor growth inhibition (TGI) (sc colon carcinoma 26; 5 mg/kg/injection): 39%
- Tumor growth inhibition (TGI) (sc colon carcinoma 26; 10 mg/kg/injection): 72%
- Tumor growth inhibition (TGI) (sc colon carcinoma 26; 20 mg/kg/injection): toxic
- Increase in Lifespan (ILS) or Inhibition of Tumor Growth (TGI) (sc colon carcinoma 26; sc Colon Carcinoma 26, optimal doses and optimal schedules): 72 % TGI
- IC50 (HT-29; [6]): 0.58 µg/mL
- IC50 (HT-29; [7]): 0.016 µg/mL
- IC50 (CACO-2; [6]): 1.7 µg/mL
- IC50 (CACO-2; [7]): 0.075 µg/mL
- IC50 (B16 Melanoma): 0.62 µg/mL
- IC50 (SW-620; [6]): 0.12 µg/mL
- IC50 (SW-620; [7]): 0.0065 µg/mL
- IC50 (WIDR; [6]): 2.1 µg/mL
- IC50 (WIDR; [7]): 0.025 µg/mL
- IC50 (L1210 Leukemia): 1.4 µg/mL
- IC50 (SKCO-1; SK-CO-1, 2 hr exposure, 7-day incubation, read-out: IC50 2 Hr. Exposure): 0.23 µg/mL
- IC50 (SKCO-1; SK-CO-1, 168 h, continuous 7-day exposure, read-out: IC50 Continuous Exposure): 0.0039 µg/mL
- IC50 (SW-948; SW948, 2 hr exposure, 7-day incubation, read-out: IC50 2 Hr. Exposure): 0.26 µg/mL
- IC50 (SW-948; SW948, 168 h, continuous 7-day exposure, read-out: IC50 Continuous Exposure): 0.016 µg/mL
- IC50 (DLD-1; [6]): 0.44 µg/mL
- IC50 (DLD-1; [7]): 0.015 µg/mL
- IC50 (LOVO; [6]): 0.58 µg/mL
- IC50 (LOVO; [7]): 0.0097 µg/mL
- IC50 (K12/Tr Colon Carcinoma; [8]): 3.9 µg/mL
- IC50 (K12/Tr Colon Carcinoma; [9]): 0.084 µg/mL
- MTD (in vivo [1]): 15 mg/kg
- MTD (in vivo [2]): 10 mg/kg
- Mice without Palpable Tumors ([3]; 5 mg/kg): 2/8
- Tumor growth inhibition (TGI) ([3]; 5 mg/kg): 61%
- Mice without Palpable Tumors ([3]; 10 mg/kg): 5/8
- Tumor growth inhibition (TGI) ([3]; 20 mg/kg): toxic
- Mice without Palpable Tumors ([3]; […]): 1/8
- Increase in Lifespan (ILS) or Inhibition of Tumor Growth (TGI) ([3]; sc): 96 % TGI
- Tumor growth inhibition (TGI) ([3]; sc): 73
- IC50 [4, 8]: 1.2 µg/mL
- IC50 [4, 9]: 0.052 µg/mL
- IC50 [5, 8]: 3.9 µg/mL
- IC50 [5, 9]: 0.017 µg/mL
- solubility in water / aqueous vehicles (Aqueous solubility): water-soluble
- ILS (iv L1210 leukemia; 3.2 mg/kg): 50%
- Increase in lifespan (ILS) (iv L1210 leukemia; 3.2 mg/kg): 57%
- ILS (iv L1210 leukemia; 5.4 mg/kg): 67%
- Increase in lifespan (ILS) (iv L1210 leukemia; 5.4 mg/kg): 93%
- ILS (iv L1210 leukemia; 9 mg/kg): 83%
- Increase in lifespan (ILS) (iv L1210 leukemia; 9 mg/kg): 136%
- Increase in lifespan (ILS) (iv L1210 leukemia; 15 mg/kg): 171%
- Long-Term Survivors (iv L1210 leukemia; 15 mg/kg): 1/6
- ILS (iv L1210 leukemia; 25 mg/kg): toxic
- Increase in lifespan (ILS) (iv L1210 leukemia; 25 mg/kg): toxic
- Increase in Lifespan (ILS) or Inhibition of Tumor Growth (TGI) (iv L1210 leukemia; iv): Curative
- Long-Term Survivors (iv L1210 leukemia; iv, 1.3 mg/kg): 2/7
- Long-Term Survivors (iv L1210 leukemia; iv, 2.2 mg/kg): 1/7
- Long-Term Survivors (iv L1210 leukemia; iv, 3.6 mg/kg): 5/7
- Long-Term Survivors (iv L1210 leukemia; iv, 24 mg/kg): 4/7
- Increase in Lifespan (ILS) or Inhibition of Tumor Growth (TGI) (iv Lewis lung carcinoma; iv Lewis Lung Carcinoma, optimal doses and optimal schedules, Acetate Salt): Curative
- Increase in lifespan (ILS) (iv Lewis lung carcinoma; 3.2 mg/kg/injection): 16%
- Increase in lifespan (ILS) (iv Lewis lung carcinoma; 5.4 mg/kg/injection): 37%
- Increase in lifespan (ILS) (iv Lewis lung carcinoma; 15 mg/kg/injection): > 200%
- Increase in lifespan (ILS) (iv Lewis lung carcinoma; 25 mg/kg/injection): toxic
- Long-Term Survivors (iv Lewis lung carcinoma; 9 mg/kg/injection): 1/7
- Long-Term Survivors (iv Lewis lung carcinoma; 15 mg/kg/injection): 7/7
- ILS (P388/Doxorubicin; 3.2 mg/kg): 14%
- NCK (net tumor cell kill) (P388/Doxorubicin; 3.2 mg/kg): 0 log
- ILS (P388/Doxorubicin; 5.4 mg/kg): 33%
- NCK (net tumor cell kill) (P388/Doxorubicin; 5.4 mg/kg): 0 log
- ILS (P388/Doxorubicin; 9 mg/kg): 90%
- NCK (net tumor cell kill) (P388/Doxorubicin; 9 mg/kg): 2.2 log
- ILS (P388/Doxorubicin; 15 mg/kg): 176%
- NCK (net tumor cell kill) (P388/Doxorubicin; 15 mg/kg): 6.0 log
- ILS (P388/Doxorubicin; 25 mg/kg): toxic
- sensitivity / resistance of subline (P388/Doxorubicin; P388/doxorubicin in mice): retained sensitivity
